According to publication PMC4522185 (ChemistryOpen, 2015):
≈ marks a conversion by molar mass, not a printed value. Like-named read-outs stand apart in the source and are kept apart here.

Tests used:
[1] = molecular target: T1, Mtb 20S open-gate proteasome (Mycobacterium tuberculosis, UniProt P9WHT9); test: biochemical
physchem [2] = settings: ch3cn+pbs (1+1), pH 7.4
physchem [3] = settings: pbs, pH 7.4, aqueous buffer
[4] = molecular target: human 20S proteasome (chymotrypsin-like activity, with PA28 activator) (Homo sapiens, UniProt P28074); test: fluorogenic suc-LLVY-AMC cleavage; assay type: biochemical
Sequence of human 20S proteasome (chymotrypsin-like activity, with PA28 activator) (P28074 60-263): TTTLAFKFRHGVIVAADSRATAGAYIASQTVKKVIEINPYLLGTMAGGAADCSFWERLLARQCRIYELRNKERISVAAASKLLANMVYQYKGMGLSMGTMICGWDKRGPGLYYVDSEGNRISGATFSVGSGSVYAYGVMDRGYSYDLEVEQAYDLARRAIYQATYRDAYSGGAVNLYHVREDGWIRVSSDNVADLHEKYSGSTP
Sequence of human 20S proteasome (chymotrypsin-like activity, with PA28 activator) (P25786 whole entry partner): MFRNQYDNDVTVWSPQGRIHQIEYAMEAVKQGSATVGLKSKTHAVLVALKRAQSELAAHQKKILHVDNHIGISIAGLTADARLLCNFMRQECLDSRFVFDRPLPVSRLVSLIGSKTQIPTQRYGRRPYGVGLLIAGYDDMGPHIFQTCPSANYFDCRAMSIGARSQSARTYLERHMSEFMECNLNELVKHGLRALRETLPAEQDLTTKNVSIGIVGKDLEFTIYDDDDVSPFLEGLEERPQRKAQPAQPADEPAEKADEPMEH

physchem [5] = settings: pbs, pH 7.4, aqueous buffer; remark: listed apart in the source
physchem [6] = settings: ch3cn+pbs (1+1), pH 7.4; remark: listed apart in the source
[7] = molecular target: T1, Mtb 20S open-gate proteasome; test: biochemical; remark: listed apart in the source
[8] = molecular target: T1, Mtb 20S open-gate proteasome; test: biochemical; remark: listed apart in the source
physchem [9] = settings: pbs ph 7.4, pH 7.4

T1 sequence (P9WHT9 whole entry): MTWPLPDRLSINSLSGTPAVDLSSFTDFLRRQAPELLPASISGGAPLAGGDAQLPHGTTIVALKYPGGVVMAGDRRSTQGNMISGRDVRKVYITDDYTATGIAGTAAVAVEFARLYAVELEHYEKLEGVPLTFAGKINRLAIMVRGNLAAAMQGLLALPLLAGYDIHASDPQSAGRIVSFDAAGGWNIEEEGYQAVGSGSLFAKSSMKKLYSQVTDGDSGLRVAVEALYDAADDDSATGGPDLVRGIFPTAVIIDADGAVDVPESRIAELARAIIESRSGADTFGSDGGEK
T1 sequence (P9WHU1 whole entry partner): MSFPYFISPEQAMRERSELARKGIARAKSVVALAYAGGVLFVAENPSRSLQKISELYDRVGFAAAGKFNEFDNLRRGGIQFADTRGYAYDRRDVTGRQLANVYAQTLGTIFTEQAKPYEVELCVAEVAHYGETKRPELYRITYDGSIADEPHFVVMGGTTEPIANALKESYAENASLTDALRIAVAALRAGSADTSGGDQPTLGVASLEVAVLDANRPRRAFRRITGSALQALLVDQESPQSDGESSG

O=c1oc(/C=C/c2cccs2)ns1 [compound 51, (E)-5-(2-(Thiophen-2-yl)vinyl)-1,3,4-oxathiazol-2-one]
IC50 [1]: 2.1 µM
remaining at 24 h, 50 µM (physchem [2]): 97.6%
solubility at 18 h (physchem [3]): 22.6 µM (≈ 4.77 µg/mL)
IC50 [4]: 18.5 µM

O=Cc1ccc(/C=C/c2nsc(=O)o2)o1 [compound 53, (E)-5-(2-(2-Oxo-1,3,4-oxathiazol-5-yl)vinyl)furan-2-carbaldehyde]
IC50 [1]: 0.735 µM
remaining at 24 h, 50 µM (physchem [2]): 88.9%
solubility at 18 h (physchem [3]): 56.1 µM (≈ 12.5 µg/mL)
IC50 [4]: 3.3 µM

O=c1oc(/C=C/c2ccsc2)ns1 [compound 52, (E)-5-(2-(Thiophen-3-yl)vinyl)-1,3,4-oxathiazol-2-one]
IC50 [1]: 1.15 µM
remaining at 24 h, 50 µM (physchem [2]): 99.1%
solubility at 18 h (physchem [3]): 19.7 µM (≈ 4.16 µg/mL)
IC50 [4]: 11.3 µM

O=c1oc(/C=C/c2ccccc2)ns1 [compound 17, (E)-5-Styryl-1,3,4-oxathiazol-2-one]
solubility at 18 h (physchem [5]): 19.1 µM (≈ 3.92 µg/mL)
remaining at 24 h, 50 µM (physchem [6]): 38.7%
IC50 [4]: > 100 µM
IC50 [7]: 0.42 µM

O=c1oc(/C=C/c2ccncc2)ns1 [compound 49, (E)-5-(2-(Pyridin-4-yl)vinyl)-1,3,4-oxathiazol-2-one]
IC50 [1]: 2.75 µM
remaining at 24 h, 50 µM (physchem [2]): 91.6%
solubility at 18 h (physchem [3]): 84.7 µM (≈ 17.5 µg/mL)
IC50 [4]: 77 µM

COc1ccc(/C=C/c2nsc(=O)o2)cc1 [compound 28, (E)-5-(4-Methoxystyryl)-1,3,4-oxathiazol-2-one]
IC50 [8]: 1.35 µM
IC50 [4]: 8.5 µM
remaining at 24 h, 50 µM (physchem [9]): 1.5%
